Data as given in US8853194B2, “Sterol derivatives and their synthesis and use” (priority 2009, dated 2014).

Key:
mouse hepatoma cells H22 = details: 0.02 g/(Kg.d) i.p.
Experimental: (§1) Ascites mice S180 and H22 that had been vaccinated 7 days were sacrificed by cervical, from which ascites were obtained under sterile conditions respectively; the obtained ascites were washed twice with culture medium RPMI1640, and prepared to a 2×10^7/ml suspension in sterile physiological saline. The suspension of cell S180 was inoculated subcutaneously in the right axillas of 40 mice (0.1 ml/mouse) to produce solid tumor models; while the suspension of cell H22 was inoculated in abdominal cavities of 40 mice (0.2 ml/mouse) by conditional means under sterile conditions to produce ascites tumor models.
(§2) 90 mice were randomly divided into 9 groups of 3 types, wherein the first type group was a normal control group, the second type groups were S180 solid tumor groups including a positive (cyclophosphamide) control group, a negative control group, a low dose group and a high dose group, and the third type groups were H22 ascites groups including a positive (cyclophosphamide) control group, a negative control group, a low dose group and a high dose group. There were 10 mice in each group. The experiment was repeated for three times.
(§3) […], the negative control group was injected same volume of corn oil, and the positive control group was injected cyclophosphamide injection solution with the dose of 0.02 g/(Kg.d). The used injection volume was 0.1 ml/mouse and the injection was given as intraperitoneal injection every other day for 15 days. During the 15 days, general activities, fur, feces, etc. of the mice were daily observed. 24 hours after the last administration, mice that had been inoculated subcutaneously with S180 were sacrificed by cervical, from which tumors, thymus and spleen were taken out. After the last administration, mice that had been inoculated in abdominal cavities with H22 were conventionally bred continually, weighted and observed the survival time every day until all the mice in the negative group were dead.
24 hours after the inoculation of ascites, the weight and the amount of abdominal circumference of the mice in the groups of ascites models were measured. The drug administration and breeding were continued according to different groups, the weight and the abdominal circumference were measured daily until one day before death. The weight increase (g) and abdominal-circumference increase (cm) were calculated. The experiment started on the day of tumor inoculation and ended on the day when all the mice in the negative control group were dead; the time of deaths were recorded, and the survival extending rate was calculated. Survival Extending Rate(%)=[(mean survival days of treatment group−mean survival days of negative control group)/mean survival days of control group]×100%
(§4) After finishing the administration in all mice in the solid tumor group, the mice were sacrificed and their spleens and livers were weighed by electronic balance. The spleen index was equivalent to the spleen weight (mg) of mice in each group divided by the weight of the mice, while the liver index was equivalent to the liver weight […] divided by the weight (g) of the mice.

mouse sarcoma cells S180 = details: 0.02 g/(Kg.d) i.p.
Experimental: as §1, §2, §3, §4
On the next day after drug withdrawal, the mice in the solid-tumor […] group were weighed and sacrificed by cervical, wherein the serum was collected by eye bleeding for later use in subsequent experiments. Tumor tissues were dissected and weighed by electronic balance. The tumor inhibition rate was calculated as follows. Tumor Inhibition Rate(%)=[(mean tumor weight of negative control group−mean tumor weight of treatment group)/mean tumor weight of control group]×100%

VEGF = details: positive CTX control group, OD at 450 nm
Experimental: Before taking tumors out, blood was collected by eye bleeding from mice in the four groups, i.e. the negative control group, the positive CTX control group, the high dose (32 mg/kg) group and the low dose (16 mg/kg) group.
1.1 Preparing reagents, samples and standards;
1.2 Adding the prepared samples and standards, and reacting for 90 minutes at 37° C.;
1.3 Washing the plate twice, adding biotinylated antibody working solution, and reacting for 60 minutes at 37° C.;
1.4 Washing the plate for three times, adding ABC working solution, and reacting for 30 minutes at 37° C.;
1.5 Washing the plate for five times, adding TMB color liquid, and reacting in dark for 15 minutes at 37° C.;
1.6 Adding TMB stop solution, and measuring OD value at 450 nm.

CAM vessels = assay: CAM assay, effect on tumor angiogenesis; type: in vivo, German Roman embryonated eggs; details: 4 ug/embryo, 72 hours incubation
Experimental: A sterile gelatin sponge, previously made into disks with diameter of 5 mm by a hole puncher, was used as sample carrier. […] There were 3 dose groups, wherein 5 μl (low dose group, with a dose volume of 2 μg/embryo), 10 μl (middle dose group, with a dose volume of 4 μg/embryo), and 20 μl (high dose group, with a dose volume of 8 μg/embryo) of the solution were added respectively into gelatin sponge slices by a quantitative liquid transfer. The sponge slices were dried in the sterile environment.
A sterilized egg was placed into a 37° C. incubator with its air chamber upward. In the 7th day, the embryo was positioned on a super-clean bench and sterilized by ethanol, and then it was drilled by a dental drill to form a little hole in the top of the embryo. Egg shell and shell membrane around the hole were carefully removed to form an opening of about 1.2 cm×1.2 cm; after determining a sample-adding site, the air chamber membrane was carefully pricked at the separation place between the chamber and the yolk by a syringe needle; through the prick hole 1-2 drops of sterilized water was injected, which made the chamber membrane and the CAM membrane be separated; after gently removing the upper layer of the chamber membrane with forceps, the CAM membrane in the lower layer was exposed.
A drug-containing carrier was placed, at the junction area of the CAM membrane and the yolk sac membrane, on a site where vessels were less, and then sealed with sterilized transparent adhesive tape to continue to incubate for 72 hours.
After the incubation, the transparent adhesive tape stopped on the top of the air chamber was gently removed by forceps; a mixture of methanol/acetone (1:1, 1-2 ml) was gently added; the room temperature was remained constant for 10 minutes. Then, the CAM membrane was carefully peeled off and placed on a glass slide for observing and taking photos. The effect of the compound on angiogenesis was assessed by counting the numbers of large, middle, small blood vessels radiated by the carrier.

O=P1(N(CCCl)CCCl)NCCCO1 (stereo not shown) [Cyclophosphamide, reference compound]
Abdominal circumference increase (cm) (mouse hepatoma cells H22; H22 ascites mice): 2.30 ± 0.66^(2)(4) cm
Survival extending rate (%) (mouse hepatoma cells H22; H22 ascites mice): 57.73%
Survival time (day) (mouse hepatoma cells H22; H22 ascites mice): 15.3 ± 1.06^(4) day
Weight increase (g) (mouse hepatoma cells H22; H22 ascites mice): 3.42 ± 1.67^(2)(4) g
Weight increase (mouse hepatoma cells H22; H22 ascites mice, listed as cyclophosphamide): 3.42 g
Liver index (100 g/g) (mouse hepatoma cells H22; ascites mice): 3.26 ± 0.27^(1)(4) 100 g/g
Spleen index (mg/g) (mouse hepatoma cells H22; ascites mice): 2.45 ± 0.34^(1)(4) mg/g
Liver index (100 g/g) (mouse sarcoma cells S180; S180 mice): 3.09 ± 0.31^(1)(4) 100 g/g
Spleen index (mg/g) (mouse sarcoma cells S180; S180 mice): 2.76 ± 0.64^(1)(4) mg/g
Tumor inhibition rate (%) (mouse sarcoma cells S180; S180 sarcoma mice): 62.63%
Tumor weight (g) (mouse sarcoma cells S180; S180 sarcoma mice): 0.518 ± 0.231^(4) g
Weight increase (g) (mouse sarcoma cells S180; S180 sarcoma mice): 4.76 ± 1.01^(1)(3) g
OD value of serum VEGF (VEGF): 0.2205 ± 0.0238

Cc1ccc(C(=O)Nc2ccc(S(=O)(=O)O)c3cc(S(=O)(=O)O)cc(S(=O)(=O)O)c23)cc1NC(=O)c1cccc(NC(=O)Nc2cccc(C(=O)Nc3cc(C(=O)Nc4ccc(S(=O)(=O)O)c5cc(S(=O)(=O)O)cc(S(=O)(=O)O)c45)ccc3C)c2)c1 [Suramin, reference compound]
Large vessels (number of the vessels) (CAM vessels): 3.6 ± 2.0
Middle vessels (number of the vessels) (CAM vessels): 12.4 ± 3.8
Small vessels (number of the vessels) (CAM vessels): 6.1 ± 3.0
